Assay results: the NIST ThermoML archive (doi:10.1016/j.tca.2010.05.016)
Numbers after ± are expanded uncertainties.

Experiment: mn = molality of the nth substance listed, in mol/kg
Conditions: 101 kPa, Liquid; for speed of sound: Vibrating Tube; for mass density: Vibrating tube method

NCC(=O)NCC(=O)NCC(=O)O [glycylglycylglycine] + O
speed of sound (288.15 K, m1 = 0.03587): 1470.6 ± 3.3 m/s
speed of sound (288.15 K, m1 = 0.04684): 1471.6 ± 3.3 m/s
speed of sound (288.15 K, m1 = 0.05855): 1473 ± 3.3 m/s
speed of sound (288.15 K, m1 = 0.06301): 1473.4 ± 3.3 m/s
speed of sound (288.15 K, m1 = 0.07743): 1475 ± 3.3 m/s
speed of sound (288.15 K, m1 = 0.09073): 1476.5 ± 3.3 m/s
speed of sound (288.15 K, m1 = 0.1016): 1477.7 ± 3.3 m/s
mass density (288.15 K, m1 = 0.03587): 1001.94 ± 0.042 kg/m3
mass density (288.15 K, m1 = 0.04684): 1002.79 ± 0.042 kg/m3
mass density (288.15 K, m1 = 0.05855): 1003.69 ± 0.043 kg/m3
mass density (288.15 K, m1 = 0.06301): 1004.03 ± 0.043 kg/m3
mass density (288.15 K, m1 = 0.07743): 1005.13 ± 0.044 kg/m3
mass density (288.15 K, m1 = 0.09073): 1006.13 ± 0.046 kg/m3
mass density (288.15 K, m1 = 0.1016): 1006.95 ± 0.046 kg/m3
speed of sound (293.15 K, m1 = 0.03587): 1486.7 ± 3.3 m/s
speed of sound (293.15 K, m1 = 0.04684): 1487.8 ± 3.3 m/s
speed of sound (293.15 K, m1 = 0.05855): 1489 ± 3.3 m/s
speed of sound (293.15 K, m1 = 0.06301): 1489.4 ± 3.3 m/s
speed of sound (293.15 K, m1 = 0.07743): 1490.8 ± 3.3 m/s
speed of sound (293.15 K, m1 = 0.09073): 1492.6 ± 3.3 m/s
speed of sound (293.15 K, m1 = 0.1016): 1493.4 ± 3.3 m/s
mass density (293.15 K, m1 = 0.03587): 1001 ± 0.041 kg/m3
mass density (293.15 K, m1 = 0.04684): 1001.85 ± 0.042 kg/m3
mass density (293.15 K, m1 = 0.05855): 1002.74 ± 0.043 kg/m3
mass density (293.15 K, m1 = 0.06301): 1003.07 ± 0.043 kg/m3
mass density (293.15 K, m1 = 0.07743): 1004.16 ± 0.044 kg/m3
mass density (293.15 K, m1 = 0.09073): 1005.15 ± 0.045 kg/m3
mass density (293.15 K, m1 = 0.1016): 1005.96 ± 0.046 kg/m3
speed of sound (298.15 K, m1 = 0.03587): 1500.8 ± 3.3 m/s
speed of sound (298.15 K, m1 = 0.04684): 1501.8 ± 3.3 m/s
speed of sound (298.15 K, m1 = 0.05855): 1503 ± 3.3 m/s
speed of sound (298.15 K, m1 = 0.06301): 1503.4 ± 3.3 m/s
speed of sound (298.15 K, m1 = 0.07743): 1504.8 ± 3.3 m/s
speed of sound (298.15 K, m1 = 0.09073): 1506 ± 3.3 m/s
speed of sound (298.15 K, m1 = 0.1016): 1507.3 ± 3.3 m/s
mass density (298.15 K, m1 = 0.03587): 999.808 ± 0.041 kg/m3
mass density (298.15 K, m1 = 0.04684): 1000.64 ± 0.041 kg/m3
mass density (298.15 K, m1 = 0.05855): 1001.52 ± 0.042 kg/m3
mass density (298.15 K, m1 = 0.06301): 1001.86 ± 0.042 kg/m3
mass density (298.15 K, m1 = 0.07743): 1002.93 ± 0.044 kg/m3
mass density (298.15 K, m1 = 0.09073): 1003.92 ± 0.045 kg/m3
mass density (298.15 K, m1 = 0.1016): 1004.73 ± 0.045 kg/m3
speed of sound (303.15 K, m1 = 0.03587): 1512.9 ± 3.3 m/s
speed of sound (303.15 K, m1 = 0.04684): 1514 ± 3.3 m/s
speed of sound (303.15 K, m1 = 0.05855): 1515.1 ± 3.3 m/s
speed of sound (303.15 K, m1 = 0.06301): 1515.5 ± 3.3 m/s
speed of sound (303.15 K, m1 = 0.07743): 1516.8 ± 3.3 m/s
speed of sound (303.15 K, m1 = 0.09073): 1518.4 ± 3.3 m/s
speed of sound (303.15 K, m1 = 0.1016): 1519.3 ± 3.3 m/s
mass density (303.15 K, m1 = 0.03587): 998.381 ± 0.042 kg/m3
mass density (303.15 K, m1 = 0.04684): 999.208 ± 0.042 kg/m3
mass density (303.15 K, m1 = 0.05855): 1000.08 ± 0.042 kg/m3
mass density (303.15 K, m1 = 0.06301): 1000.41 ± 0.042 kg/m3
mass density (303.15 K, m1 = 0.07743): 1001.54 ± 0.043 kg/m3
mass density (303.15 K, m1 = 0.09073): 1002.46 ± 0.044 kg/m3
mass density (303.15 K, m1 = 0.1016): 1003.26 ± 0.045 kg/m3
speed of sound (308.15 K, m1 = 0.03587): 1523.3 ± 3.3 m/s
speed of sound (308.15 K, m1 = 0.04684): 1524.3 ± 3.3 m/s
speed of sound (308.15 K, m1 = 0.05855): 1525.4 ± 3.3 m/s
speed of sound (308.15 K, m1 = 0.06301): 1525.8 ± 3.3 m/s
speed of sound (308.15 K, m1 = 0.07743): 1527.3 ± 3.3 m/s
speed of sound (308.15 K, m1 = 0.09073): 1528.5 ± 3.3 m/s
speed of sound (308.15 K, m1 = 0.1016): 1529.5 ± 3.3 m/s
mass density (308.15 K, m1 = 0.03587): 996.783 ± 0.043 kg/m3
mass density (308.15 K, m1 = 0.04684): 997.565 ± 0.042 kg/m3
mass density (308.15 K, m1 = 0.05855): 998.435 ± 0.042 kg/m3
mass density (308.15 K, m1 = 0.06301): 998.76 ± 0.042 kg/m3
mass density (308.15 K, m1 = 0.07743): 999.825 ± 0.042 kg/m3
mass density (308.15 K, m1 = 0.09073): 1000.79 ± 0.043 kg/m3
mass density (308.15 K, m1 = 0.1016): 1001.58 ± 0.044 kg/m3
